The results in this text go back to patent publication EP4624466A1, “DEGRADER FOR DECOMPOSING CMET PROTEIN, AND PHARMACEUTICAL COMPOSITION COMPRISING SAME” (Innocure Therapeutics, Inc., priority 2022, dated 2024).

Where two headings read alike, the source gives them in different places.

One assay concerns SNU-638. Briefly: Cell viability / antiproliferative assay (WST-8), SNU-638. The class given is cell-based, human. As to conditions: read-out: SNU-638 IC50. (Tetrazolium assays rely on reduction of a dye to a coloured formazan, in cell work by metabolically active cells.)
The next assay concerns MKN-45. The assay can be described thus: Cell viability / antiproliferative assay (WST-8), MKN-45.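 For all read-outs here: MKN-45 is a human gastric cancer line overexpressing c-MET, growth inhibition read as WST-8 formazan absorbance at 450 nm after 2 h dye incubation.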 As to conditions: for IC50: Homo sapiens, MKN-45, 72 h, read-out: MKN-45 IC50.
Assay [1] addresses T1, c-MET (Homo sapiens, UniProt P08581). Briefly: c-MET protein degradation (Simple Western), MKN-45. Particulars: c-MET overexpressing gastric cancer cell line MKN-45, treated 24 hours; Table 2. The format is cell-based. Further details: assess the resolution of the compound of the present invention for c-MET expressed in cells; endogenous in cells; host or cells: MKN45 (human gastric cancer). In outline:
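Cells treated 24 h (gastric lines) or 48 h (lung lines); 3 µg lysate protein analysed by capillary Simple Western with anti-c-MET, normalized to GAPDH and expressed as % of 0.1% DMSO; DC50 from expression change.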

Assay [2] has as its target T1, c-MET. Briefly: c-MET protein degradation (Simple Western), SNU-638. The class given is cell-based. Further details: assess the resolution of the compound of the present invention for c-MET expressed in cells; endogenous in cells; host or cells: SNU638 (human gastric cancer). Particulars: c-MET overexpressing gastric cancer cell line SNU-638, treated 24 hours; Table 2. The procedure: In order to assess the resolution of the compound of the present invention for c-MET expressed in cells, cells were dispensed in a 12-well plate at a concentration of 2 × 10^5 cells/well, and then gastric cancer cell lines were treated with samples for 24 hours and lung cancer cell lines were treated for 48 hours. Cell lysates were collected using a scraper on ice, centrifuged at 4°C15,000 rpm for 30 min to obtain a protein-containing supernatant. Protein expression was then measured using the Simple Western Automated Western Blot System Abby instrument using 3 µg of protein for each sample. SDS and heat-induced denaturation proteins were separated by molecular weight, attached to capillary, reacted with anti-c-MET or anti-GAPDH antibodies, which are primary antibodies, and then reacted with HRP-conjugated secondary antibodies, and analyzed the protein expression signal with compass software. Protein expression was normalized based on the expression value of GAPDH, and protein development in each sample was measured as a percentage (%) based on 100% of samples treated with 0.1% DMSO carriers, and DC50 (concentration of a compound where 50% protein inhibition is achieved) was calculated from the change in protein expression amount due to compound treatment.

In a further assay the test system is EBC-1. Briefly: Cell viability / antiproliferative assay (WST-8), EBC-1. The format is cell-based, human. As to conditions: Homo sapiens, read-out: EBC-1 IC50.

T1 sequence (P08581 25-1390): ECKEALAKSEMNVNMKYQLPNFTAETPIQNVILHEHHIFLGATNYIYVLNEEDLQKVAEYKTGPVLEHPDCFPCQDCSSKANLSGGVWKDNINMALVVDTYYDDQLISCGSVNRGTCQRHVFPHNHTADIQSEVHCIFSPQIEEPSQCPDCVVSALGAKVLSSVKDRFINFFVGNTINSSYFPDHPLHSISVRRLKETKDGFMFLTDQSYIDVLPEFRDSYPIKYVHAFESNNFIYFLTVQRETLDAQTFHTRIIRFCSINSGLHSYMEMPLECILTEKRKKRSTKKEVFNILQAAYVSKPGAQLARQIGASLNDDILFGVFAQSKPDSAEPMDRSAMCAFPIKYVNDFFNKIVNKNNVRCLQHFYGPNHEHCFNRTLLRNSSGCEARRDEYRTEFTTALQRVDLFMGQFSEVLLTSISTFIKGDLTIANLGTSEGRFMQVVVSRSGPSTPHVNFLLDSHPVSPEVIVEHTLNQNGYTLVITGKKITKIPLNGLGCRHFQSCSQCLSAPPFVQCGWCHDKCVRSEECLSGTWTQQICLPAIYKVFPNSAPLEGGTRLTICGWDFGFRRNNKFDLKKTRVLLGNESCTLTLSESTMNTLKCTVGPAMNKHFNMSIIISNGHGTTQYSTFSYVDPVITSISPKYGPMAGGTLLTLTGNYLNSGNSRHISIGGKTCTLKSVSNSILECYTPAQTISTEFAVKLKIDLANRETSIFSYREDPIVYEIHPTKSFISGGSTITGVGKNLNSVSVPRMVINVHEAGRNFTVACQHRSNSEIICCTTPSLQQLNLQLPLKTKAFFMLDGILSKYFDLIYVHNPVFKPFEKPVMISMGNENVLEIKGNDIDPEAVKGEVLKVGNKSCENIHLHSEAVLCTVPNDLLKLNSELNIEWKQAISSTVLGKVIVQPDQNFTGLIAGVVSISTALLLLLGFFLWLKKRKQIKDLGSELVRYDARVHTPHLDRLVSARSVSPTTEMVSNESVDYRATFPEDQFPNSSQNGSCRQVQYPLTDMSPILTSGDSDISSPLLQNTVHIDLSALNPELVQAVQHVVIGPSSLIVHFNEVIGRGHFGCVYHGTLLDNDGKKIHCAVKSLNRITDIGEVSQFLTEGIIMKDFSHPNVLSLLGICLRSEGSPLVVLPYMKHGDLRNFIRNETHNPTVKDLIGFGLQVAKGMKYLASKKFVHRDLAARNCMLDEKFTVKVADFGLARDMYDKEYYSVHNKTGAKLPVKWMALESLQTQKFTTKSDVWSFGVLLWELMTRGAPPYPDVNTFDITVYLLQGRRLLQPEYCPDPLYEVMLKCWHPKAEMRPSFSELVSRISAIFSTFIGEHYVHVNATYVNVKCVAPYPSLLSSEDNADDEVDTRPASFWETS
Protocol for EBC-1: c-MET overexpressing human gastric cancer cell lines [MKN45] and [SNU638] were cultured in RPMI medium with 10% fetal bovine serum, penicillin (100U/ml), and streptomycin (100mg/ml), and c-MET exon 14 skipping mutant human gastric cancer cell lines [Hs746T] were cultured in DMEM media. The c-MET overexpressing human lung cancer cell line EBC-1 was cultured in MEM media with the addition of 10% fetal bovine serum, penicillin (100U/ml), and streptomycin (100mg/ml). […] The compound synthesized in accordance with the present invention was prepared with a raw material solution of 10 mM dissolved in DMSO (dimethyl sulfoxide), and was sequentially diluted and processed.
In order to observe the inhibitory activity on cell growth, cells were dispensed in a 96-well plate at a concentration of 5,000 cells/well, and then treated with the compound prepared at various concentrations for 72 hours. The viability of the cells was calculated using GraphicPad Prism 8.0 software by adding 10 ml per well of WST-8 (water soluble tetrazolium salt) sample, which reacts with dehydrogenase present in the electron transport system of mitochondria to produce formazon, incubated for 2 hours, and measured absorbance at 450 nm.

In general, IC50 refers to the concentration needed to halve the response being measured. The term DC50 denotes the concentration giving 50% degradation. On to `Cc1nn(C2CCC(=O)NC2=O)c(=O)c2c(NCC(=O)N3CCC(CN4CCC(COc5cnc(-c6cccc(Cn7nc(-c8cccc(C#N)c8)ccc7=O)c6)nc5)CC4)CC3)cccc12` (centres unmarked) [ICT-0000980], for which the IC50 in the assay on SNU-638 (Homo sapiens, SNU-638, 72 h) is 100 to 1000 nM; in the assay with MKN-45 it was below 100 nM. In addition, the DC50 was below 100 nM on c-MET [1] and above 1000 nM at c-MET [2].

Regarding `Cn1cc(-c2cnc3c(nnn3C[C@@H]3CN(c4ncc(-c5ccc(CN6CCN(c7ccc(NC8CCC(=O)NC8=O)cc7F)CC6)cc5)cn4)CCO3)n2)cn1` (stereo partly drawn) [ICT-0001403, 3-((3-fluoro-4-(4-(4-(2-((S)-2-((5-(1-methyl-1H-pyrazole-4-yl)-1H-[1,2,3]triazolo[4,5-b]pyrazine-1-yl)methyl)morpholino)pyrimidine-5-yl)benzyl)piperazine-1-yl)phenyl)amino)piperidine-2,6-dione], the IC50 in the assay with SNU-638 (Homo sapiens, SNU-638 cells, 72 hours, WST-8, Table 1) was below 100 nM; in the assay with EBC-1 (EBC-1 cells, 72 hours, WST-8, Table 1), below 100 nM.

As to `Cc1nn(C2CCC(=O)NC2=O)c(=O)c2ccc(N3CCN(C(=O)C4CN(CC(=O)N5CCC(COc6cnc(-c7cccc(Cn8nc(-c9cccc(C#N)c9)ccc8=O)c7)nc6)CC5)C4)CC3)cc12` (centres unmarked) [ICT-0001257], the IC50 was below 100 nM in the assay on EBC-1 (EBC-1, 72 h) and below 100 nM in the assay on MKN-45. In addition, at c-MET [1], the DC50 was below 100 nM.

Regarding `Cc1nn(C2CCC(=O)NC2=O)c(=O)c2cc(N3CCN(c4ccc(NCC(=O)N5CCC(COc6cnc(-c7cccc(Cn8nc(-c9cccc(C#N)c9)ccc8=O)c7)nc6)CC5)cc4)CC3)ccc12` (centres unmarked) [ICT-0001262, 3-(1-(3-(5-((1-((4-(4-(3-(2,6-dioxopiperidin-3-yl)-1-methyl-4-oxo-3,4-dihydropthalazine-6-yl)piperazine-1-yl)phenyl)glycy)piperidine-4-il)methoxy)pyrimidine-2-yl)benzyl)6-oxo-1,6-dihydropyridazine-3-yl)benzonitrile], the 50% inhibitory concentration (IC50) in the assay with EBC-1 (EBC-1, 72 h) was below 100 nM; in the assay on MKN-45, below 100 nM. At c-MET [1], this molecule yielded a DC50 below 100 nM.

Take `Cc1nn(C2CCC(=O)NC2=O)c(=O)c2cc(N3CCN(CC4CCN(CCN5CCC(COc6cnc(-c7cccc(Cn8nc(-c9cccc(C#N)c9)ccc8=O)c7)nc6)CC5)CC4)CC3)c(F)cc12` (centres unmarked) [ICT-0001326]: the IC50 with SNU-638 (Homo sapiens, SNU-638, 72 h) lay in the range of 100 to 1000 nM. The molecule also came in with a DC50 at c-MET [2] above 1000 nM.

`N#Cc1cccc(-c2ccc(=O)n(Cc3cccc(-c4ncc(OCC5CCN(C(=O)CN6CCN(c7ccc8c(=O)n(C9CCC(=O)NC9=O)ncc8c7)CC6)CC5)cn4)c3)n2)c1` (centres unmarked) [ICT-0000979, 3-(1-{[3-(5-{[1-(2-{4-[2-(2,6-dioxopiperidine-3-yl)-1-oxo-1,2-dihydrophthalazine-6-yl]piperazine-1-day}acetyl)piperidine-4-yl]methoxy}pyrimidine-2-yl)phenyl]methyl}-6-oxo-1,6-dihydropyridazine-3-yl)benzonitrile]: in the assay with SNU-638 (Homo sapiens, SNU-638, 72 h), the IC50 lay within 100 to 1000 nM. Further, in the assay with MKN-45 (MKN-45 cells, 72 hours, WST-8, Table 2), the “MKN-45 IC50” value is “A”. Besides, the DC50 at c-MET [1] was below 100 nM; on c-MET [2], 100 to 1000 nM.

`Cc1nn(C2CCC(=O)NC2=O)c(=O)c2ccc(N3CCN(C(=O)C4CCN(CC(=O)N5CCC(COc6cnc(-c7cccc(Cn8nc(-c9cccc(C#N)c9)ccc8=O)c7)nc6)CC5)CC4)CC3)cc12` (centres unmarked) [ICT-0001218]: the half-maximal inhibitory concentration (IC50) is below 100 nM in the assay with SNU-638 (Homo sapiens, SNU-638, 72 h) and below 100 nM in the assay on MKN-45. Also, the DC50 on c-MET [1] and at c-MET [2] was below 100 nM throughout.

Take `Cc1nn(C2CCC(=O)NC2=O)c(=O)c2ccc(N3CCN(C4CN(CCN5CCC(COc6cnc(-c7cccc(Cn8nc(-c9cccc(C#N)c9)ccc8=O)c7)nc6)CC5)C4)CC3)cc12` (centres unmarked) [ICT-0001325]: the IC50 with SNU-638 (Homo sapiens, SNU-638, 72 h) is below 100 nM. In addition, the DC50 at c-MET [2] was above 1000 nM.

Take `N#Cc1cccc(-c2ccc(=O)n(Cc3ccc(-c4ncc(OCC5CCN(CCCC#Cc6cccc7c(=O)n(C8CCC(=O)NC8=O)ncc67)CC5)cn4)cc3)n2)c1` (centres unmarked) [ICT-0001303]: the IC50 with SNU-638 (SNU-638 cells, 72 hours, WST-8, Table 2) is below 100 nM. At c-MET [2], this molecule came in with a half-maximal degradation concentration (DC50) of 100 to 1000 nM.
